Reference: the NIST ThermoML archive (doi:10.1021/je034102r)

Test: molar heat capacity at constant pressure
Details: 101.33 kPa, Liquid, heat bridge-scanning calorimeter

CCCCn1cc[n+](C)c1.F[P-](F)(F)(F)(F)F [1-butyl-3-methylimidazolium hexafluorophosphate]
Details | molar heat capacity at constant pressure [J/K/mol]
422.55 K | 478.28
422.69 K | 477.99
422.82 K | 477.71
422.95 K | 477.71
423.09 K | 477.99
423.22 K | 478.56
423.52 K | 477.71
423.65 K | 477.43
423.79 K | 477.71
423.92 K | 477.71
424.05 K | 477.71
424.2 K | 477.99
424.34 K | 478.28
424.47 K | 478.56
424.61 K | 478.85
424.74 K | 478.28
424.87 K | 478.28
425.17 K | 478.85
425.3 K | 478.85
425.43 K | 478.56
425.57 K | 478.28
425.7 K | 478.85
425.84 K | 479.42
425.97 K | 480.84
426.11 K | 481.4
426.24 K | 480.55
426.54 K | 479.7
426.67 K | 479.42
426.81 K | 479.13
426.94 K | 479.42
427.08 K | 479.42
427.21 K | 479.42
427.35 K | 479.13
427.48 K | 479.13
427.62 K | 478.85
427.75 K | 479.13
427.89 K | 479.13
428.18 K | 479.13
428.32 K | 479.7
428.45 K | 479.98
428.59 K | 479.98
428.72 K | 479.98
428.85 K | 479.7
428.99 K | 479.7
429.12 K | 479.42
429.26 K | 479.42
429.56 K | 479.7
429.69 K | 479.7
429.83 K | 480.27
429.96 K | 480.55
430.1 K | 480.55
430.23 K | 480.55
430.37 K | 481.12
430.51 K | 480.84
430.65 K | 480.55
430.78 K | 480.55
430.92 K | 480.55
431.21 K | 480.27
431.35 K | 480.27
431.48 K | 480.55
431.62 K | 481.12
431.75 K | 481.4
431.89 K | 481.69
432.02 K | 481.12
432.16 K | 481.12
432.29 K | 480.84
432.59 K | 481.12
432.72 K | 481.12
432.86 K | 481.12
432.99 K | 481.12
433.13 K | 481.12
433.27 K | 481.12
433.4 K | 481.12
433.54 K | 481.4
433.67 K | 482.83
433.81 K | 484.25
433.95 K | 483.96
434.24 K | 482.54
434.37 K | 482.54
434.51 K | 483.11
434.65 K | 483.11
434.78 K | 482.83
434.92 K | 482.54
435.05 K | 482.54
435.19 K | 482.26
435.32 K | 482.26
435.62 K | 482.83
435.76 K | 483.11
435.9 K | 483.11
436.03 K | 483.39
436.17 K | 483.39
436.3 K | 483.11
436.44 K | 483.68
436.57 K | 483.96
436.71 K | 483.39
436.85 K | 483.68
